Each structure is given as a SMILES string.

The results in this text go back to US12338203B2 (TAISHO PHARMACEUTICAL CO., LTD., priority 2019, dated 2025).

One experiment deals with T1, human LPAR1 (Homo sapiens, UniProt Q92633).
T1 construct: expressed in transfected cells
T1 sequence (Q92633 whole entry): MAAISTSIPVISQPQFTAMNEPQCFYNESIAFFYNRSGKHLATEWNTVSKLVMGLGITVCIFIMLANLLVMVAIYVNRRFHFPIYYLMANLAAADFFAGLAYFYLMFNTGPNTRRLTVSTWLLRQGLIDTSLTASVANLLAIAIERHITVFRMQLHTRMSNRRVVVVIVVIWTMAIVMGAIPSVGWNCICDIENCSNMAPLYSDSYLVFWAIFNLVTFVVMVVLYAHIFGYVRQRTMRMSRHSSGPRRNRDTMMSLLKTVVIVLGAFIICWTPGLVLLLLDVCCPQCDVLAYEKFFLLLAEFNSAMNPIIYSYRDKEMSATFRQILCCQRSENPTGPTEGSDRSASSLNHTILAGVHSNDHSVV
The experiment in a line: Test Example 1: antagonism against response of LPA-induced increase in intracellular Ca2+ concentration in RH7777 cells stably expressing human LPAR1.
Details: not given
In kind it is cell-based. An outline of the steps:
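RH7777 cells stably transfected with human LPAR1 were preincubated with test compound 30 min at 37 °C in HBSS/20 mM HEPES/probenecid/0.05% BSA buffer, pH 7.4, then LPA-stimulated.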
On to `CCCCC(NC(=O)N(CCCCc1ccccc1)Cc1cc(OC)c(C)c(OC)c1)C(=O)O` (centres unmarked) [Example 1-3], for which the IC50 came to 1800 nM.

The same experiment, now with this note: RH7777 cells stably expressing human LPAR1; Fluo-4 fluorescence, FDSS6000; read-out: IC50 value (concentration producing 50% antagonism against response of LPA-induced increase in intracellular Ca2+ concentration) (converted).
`COc1cc(C(C)N(CCOCc2ccccc2)C(=O)NC2(C(=O)O)CCOCC2)c(C)c(OC)c1C1CC1` (centres unmarked) [Example 5-177]: the IC50 was 2.77 nM.

As to `CCOc1cc([C@@H](C)N(CCOCc2ccccc2)C(=O)N[C@]2(C(=O)O)C[C@H](OC)C2)c(C)c(OCC)c1C(C)=O` [Example 5-74], the IC50 is 1.93 nM.

Turning to `CCOc1cc(C(C)N(CCOCc2ccccc2)C(=O)NC2(C(=O)O)CC(F)(F)C2)c(Cl)c(OCC)c1C1CC1` (centres unmarked) [Example 5-197], the IC50 was 1.04 nM.

On to `CCOc1cc([C@@H](C)N(CCOCc2ccccc2)C(=O)NC2(C(=O)O)CC(OC)C2)c(C)c(OCC)c1C` (some centres unmarked) [Example 5-78], for which the IC50 is 1.05 nM.

`CCOc1cc(C(C)N(CCCCc2ccccc2)C(=O)NC2(C(=O)O)CC(F)(F)C2)cc(OCC)c1C(O)C(F)(F)F` (centres unmarked) [Example 1-52]: the IC50 is 7.96 nM.

Regarding `CCNc1cc(C(C)N(CCCCc2ccccc2)C(=O)NC2(C(=O)O)CCS(=O)(=O)CC2)cc(OCC)c1C(C)=O` (centres unmarked) [Example 5-105], the IC50 is 12.2 nM.

For the compound `CCOc1cc([C@@H](C)N(CCC(F)(F)Cc2ccccc2)C(=O)NC2(C(=O)O)CCOCC2)c(Cl)c(OCC)c1C(C)O` (stereo partly drawn) [Example 5-67, 4-{[{(1R)-1-[2-Chloro-3,5-Diethoxy-4-(1-Hydroxyethyl)Phenyl]Ethyl}(3,3-Difluoro-4-Phenylbutyl) Carbamoyl]Amino}Oxane-4-Carboxylic Acid], the IC50 is 43.4 nM.

In the case of `CCOc1cc([C@@H](C)N(CCO[C@@H](C)c2ccccc2)C(=O)NC2(C(=O)O)CC2)c(C)c(OCC)c1C` [Example 5-75], the IC50 was 4.74 nM.

Consider `CCOc1cc(OCC)cc(C(C)N(CCCCc2ccccc2)C(=O)NC2(C(=O)OC)CCCC2)c1` (centres unmarked) [Example 6-2, Methyl 1-({[1-(3,5-Diethoxyphenyl)Ethyl](4-Phenylbutyl) Carbamoyl}Amino)Cyclopentane-1-Carboxylate], for which the IC50 is 3760 nM.

With `CCOc1cc([C@@H](C)N(CCCCc2ccccc2)C(=O)NC2(C(=O)O)CCN(C(C)=O)CC2)cc(OCC)c1C` [Example 1-160], the IC50 is 11.9 nM.

As for `CCOc1cc([C@@H](C)N(CCO[C@@H](C)c2ccccc2)C(=O)NC2(C(=O)O)CC(OC)C2)c(Cl)c(OCC)c1C(C)O` (single isomer, unassigned) [Example 5-57], the IC50 was 4.08 nM.

Consider `CCOc1cc([C@@H](C)N(CCOCc2ccccc2)C(=O)NC2(C(=O)O)CCC2)cc(OCC)c1C(C)=O` [Example 4-101], for which the IC50 was 1.25 nM.

As to `CCOc1cc([C@@H](C)N(CCO[C@@H](C)c2ccccc2)C(=O)N[C@]2(C(=O)O)C[C@H](OCC)C2)c(Cl)c(OCC)c1C(C)O` (some centres unmarked) [Example 5-63], the IC50 is 8.05 nM.

For `CCOc1c(C(C)=O)ccc([C@@H](C)N(CCCCc2ccccc2)C(=O)NC2(C(=O)O)CC(OC)C2)c1C` (some centres unmarked) [Example 1-93], the IC50 is 4 nM.

As for `CCOc1cc(C(C)N(CCCCc2ccccc2)C(=O)NC2(C(=O)NS(=O)(=O)N(C)C)CCCC2)cc(OCC)c1C` (centres unmarked) [Example 7-5, 1-({[1-(3,5-Diethoxy-4-Methylphenyl)Ethyl](4-Phenylbutyl) Carbamoyl}Amino)-N-(Dimethylsulfamoyl)Cyclopentane-1-Carboxamide], the IC50 was 272 nM.

In the case of `CCOc1c(C(C)=O)ccc([C@@H](C)N(CCCCc2ccccc2)C(=O)NC2CCC2C(=O)O)c1C` (some centres unmarked) [Example 1-127], the IC50 was 33.7 nM.

For the compound `CCOc1cc(C(C)N(CCCCc2ccccc2)C(=O)NC2(C(=O)O)CC(F)(F)C2)cc(OCC)c1C(C)(C)O` (centres unmarked) [Example 1-32], the IC50 is 8.93 nM.

For the compound `CCO[C@H]1C[C@@](NC(=O)N(CCOCc2ccccc2)C(C)c2cc(OC)c(C(C)=O)c(OC)c2Cl)(C(=O)O)C1` (some centres unmarked) [Example 5-127], the IC50 is 3.94 nM.

Regarding `CCOc1cc([C@@H](C)N(CCCCc2ccccc2)C(=O)NC2CC(C(=O)O)C2)cc(OCC)c1C1CC1` (some centres unmarked) [Example 1-130], the IC50 is 6.48 nM.

As to `CCOc1cc([C@@H](C)N(CCCCc2ccccc2)C(=O)NC2(C(=O)O)CC(=O)C2)cc(OCC)c1C` [Example 1-111], the IC50 was 2.31 nM.

Consider `CCOc1cc([C@@H](C)N(CCO[C@@H](C)c2ccccc2)C(=O)N[C@]2(C(=O)O)C[C@@H](OC)C2)cc(OCC)c1C1CC1` [Example 4-128], for which the IC50 is 1.08 nM.

For `CCOc1cc(C(C)N(CCCCc2ccccc2)C(=O)NC2(C(=O)O)CC(F)(F)C2)cc(F)c1C(C)O` (centres unmarked) [Example 1-72], the IC50 was 4.22 nM.

Take `CCOc1cc([C@@H](C)N(CCCCc2ccccc2)C(=O)NC2(C(=O)O)CC(O)C2)cc(OCC)c1C` (some centres unmarked) [Example 1-106]: the IC50 was 8.72 nM.

As to `CCOc1cc(C(C)N(CCCCc2ccccc2)C(=O)NC2(C(=O)O)Cc3ccccc3C2)cc(OCC)c1C` (centres unmarked) [Example 1-122], the IC50 is 12.7 nM.

Regarding `CCOc1cc([C@@H](C)N(CCCCc2ccccc2)C(=O)NC2(C(=O)O)CC(OC)C2)c(Cl)c(OCC)c1C(C)=O` (some centres unmarked) [Example 5-47], the IC50 is 2.1 nM.

Turning to `CCOc1cc([C@@H](C)N(CC(C)CCc2ccccc2)C(=O)NC2(C(=O)O)Cc3ccccc3C2)cc(OCC)c1C` (some centres unmarked) [Example 4-39], the IC50 was 46.4 nM.

Turning to `COc1cc(C(C)N(CCO[C@@H](C)c2ccccc2)C(=O)NC2(C(=O)O)CCOCC2)c(Cl)c(OC)c1C1CC1` (some centres unmarked) [Example 5-180], the IC50 is 6.4 nM.

As to `CCOc1cc(C(C)N(CCCC(F)(F)c2ccccc2)C(=O)NC2(c3nn[nH]n3)CC2)cc(OCC)c1C(C)=O` (centres unmarked) [Example 10-4], the IC50 was 2.63 nM.

As for `COc1cc(C(CO)N(CCCCc2ccccc2)C(=O)NC2(C(=O)O)CCCC2)cc(OC)c1C` (centres unmarked) [Example 3-7], the IC50 was 74.5 nM.

For the compound `CCOc1cc(C(C)N(CCOCc2ccccc2)C(=O)NC2(C(=O)O)CCOCC2)cc(OCC)c1C1CC1` (centres unmarked) [Example 5-224], the IC50 is 0.949 nM.

As for `CCOc1cc([C@@H](C)N(CCO[C@@H](C)c2cccc(Cl)c2)C(=O)NC2(C(=O)O)CC(F)(F)C2)c(Cl)c(OCC)c1C(C)=O` [Example 4-177], the IC50 is 4.02 nM.

As for `CCOc1cc([C@@H](C)N(CCC(F)(F)Cc2ccccc2)C(=O)NC2(C(=O)O)CCC2)cc(OCC)c1C(C)=O` [Example 4-81], the IC50 is 7.89 nM.

With `CCOc1cc([C@@H](C)N(CCOCc2ccccc2)C(=O)NC2(C(=O)O)CCOCC2)c(Cl)c(OCC)c1C(C)=O` [Example 5-39], the IC50 is 0.516 nM.

`CCOc1cc([C@@H](C)N(CCCC(F)(F)c2ccccc2)C(=O)N[C@]2(C(=O)O)C[C@@H](OC)C2)cc(OCC)c1C(C)=O` [Example 4-64]: the IC50 was 2.69 nM.

For `CCOc1cc([C@@H](C)N(CCCCc2ccccc2)C(=O)NC2CCC(C(=O)O)C2)cc(OCC)c1C(C)=O` (some centres unmarked) [Example 1-141], the IC50 was 42.9 nM.

For the compound `CCOc1cc([C@@H](C)N(CCO[C@@H](C)c2ccccc2)C(=O)NC2(C(=O)O)CC(F)(F)C2)cc(OCC)c1C1CC1` [Example 4-118], the IC50 was 0.948 nM.

For the compound `CCOc1cc(C(C)N(CCCCc2ccccc2)C(=O)NC2CCC(C(=O)O)CC2)cc(OCC)c1C` (centres unmarked) [Example 1-143], the IC50 is 200 nM.

Turning to `CCOc1c(C(C)=O)ccc([C@@H](C)N(CCO[C@H](C)c2ccccc2)C(=O)NC2(C(=O)O)CCC2)c1C` [Example 4-148], the IC50 is 3.22 nM.

On to `CCOc1cc([C@@H](C)N(CCO[C@@H](C)c2ccccc2)C(=O)NC2(C(=O)O)CC(OC)C2)c(Cl)c(OCC)c1C(C)O` (single isomer, unassigned) [Example 5-58], for which the IC50 was 3.82 nM.

For `CCOc1cc([C@@H](C)N(CCCCc2ccccc2)C(=O)NC2(C(=O)O)CC(N3CCOCC3)C2)cc(OCC)c1C` (some centres unmarked) [Example 1-110], the IC50 is 20.2 nM.

For `COc1cc(C(C)N(CCCCc2ccccc2)C(=O)NC2(C(=O)O)CCCC2)cc(OC)c1C` (centres unmarked) [Example 1-116], the IC50 was 57.4 nM.

On to `CCOc1cc([C@@H](C)N(CCO[C@@H](C)c2ccccc2)C(=O)N[C@]2(C(=O)O)C[C@@H](OCC)C2)c(C)c(OCC)c1C` [Example 5-82, trans-1-[([(1R)-1-(3,5-diethoxy-2,4-dimethylphenyl)ethyl]{2-[(1S)-1-phenylethoxy]ethyl}carbamoyl)amino]-3-ethoxycyclobutane-1-carboxylic acid], for which the IC50 was 1.75 nM.

As to `CCOC1CC(NC(=O)N(CCOCc2ccccc2)C(C)c2cc(OC)c(C3CC3)c(OC)c2)(C(=O)O)C1` (centres unmarked) [Example 5-162], the IC50 is 3.66 nM.

For the compound `CCOc1cc(C(C)N(CCCCc2ccccc2)C(=O)NC2(C(=O)O)CC(F)(F)C2)cc(OCC(F)(F)F)c1C` (centres unmarked) [Example 1-63], the IC50 is 10.9 nM.

In the case of `CCOc1cc(C(C)N(CCOCc2ccccc2)C(=O)NC2(C(=O)O)CC(F)(F)C2)cc(OCC)c1C1CC1` (centres unmarked) [Example 5-196], the IC50 was 1.41 nM.

Turning to `CCOc1cc(C(C)N(CCOC(C)c2ccccc2)C(=O)NC2(c3nn[nH]n3)CC(OC)C2)cc(OCC)c1C(C)=O` (centres unmarked) [Example 10-16], the IC50 is 4.86 nM.

For the compound `CCOc1cc(C(C)N(CCCCc2ccccc2)C(=O)NC(Cc2ccccc2)C(=O)O)cc(OCC)c1C` (centres unmarked) [Example 1-8], the IC50 is 125 nM.

Regarding `CCCCN(C(=O)NC1(C(=O)O)CC(F)(F)C1)[C@H](C)c1cc(OCC)c(C)c(OCC)c1` [Example 4-1, 1-({Butyl[(1R)-1-(3,5-Diethoxy-4-Methylphenyl)Ethyl]Carbamoyl}Amino)-3,3-Difluorocyclobutane-1-Carboxylic Acid], the IC50 is 2500 nM.

`CCOc1cc([C@@H](C)N(CCCC(F)(F)c2ccccc2)C(=O)NC2(C(=O)O)CC2)cc(OCC)c1C1CC1` [Example 4-46]: the IC50 is 1.21 nM.

As to `COc1cc(C(C)N(CCOCc2ccccc2)C(=O)NC2(C(=O)O)CC(F)(F)C2)c(Cl)c(OC)c1C(C)=O` (centres unmarked) [Example 5-143], the IC50 is 3.11 nM.

As for `CCOc1c(C(C)=O)ccc([C@@H](C)N(CCO[C@@H](C)c2ccccc2)C(=O)NC2(C(=O)O)CC2)c1C` [Example 4-113], the IC50 was 8.95 nM.

On to `CCOc1cc(C(C)N(CCOCc2ccccc2)C(=O)NC2(c3nn[nH]n3)CC2)cc(OCC)c1C(C)=O` (centres unmarked) [Example 10-5], for which the IC50 was 2.85 nM.
